Data published in patent US20240252668A1, “ANTIBODY DRUG CONJUGATES AND METHODS FOR MAKING THEREOF” (Novartis AG, priority 2021, published 2024).
Like-named read-outs stand apart in the source and are kept apart here. Starred links: 1 amine or outer side, 2 acyl side, 3 side chain; linkers in the order of their positions; H or OH if unused. Non-standard residues stand in square brackets, D forms with d. Residues, ends and D or L forms follow the SMILES beside them. *: point of attachment. Leu(3R-OH,Nα-propionyl) = CCC(=O)N[C@H](C(=O)*)[C@H](O)C(C)C; X1 = CC(C)[C@@H](O[*:3])[C@H](N[*:1])C(=O)[*:2]; NMeT = CN[C@H](C(=O)O)[C@@H](C)O; dPhLac = O=C(O)[C@H](O)Cc1ccccc1; X2 = CC(C)C=C(N[*:1])C(=O)[*:2]; NMeA = CN[C@@H](C)C(=O)O; NMeDha = C=C(NC)C(=O)O

Experiments:
[1] = test system: MP41 uveal melanoma cell line (heterozygous GNA11 Q209L); assay: Cell proliferation assay (resazurin cell viability), MP41 cell line; type: cell-based
Excerpt: (§1) Cell Proliferation Assays with Chromodepsins (compounds (A1) and 2-15): Cell line descriptions: 92.1—uveal melanoma cell line, derived from primary tumor, harboring heterozygous GNAQ Q209L mutation. Purchased from Sigma Aldrich. MP41 (CRL-3297) -uveal melanoma cell line, derived from primary tumor, harboring heterozygous GNA11 Q209L mutation. Purchased from ATCC. A375—skin melanoma cell line, harboring homozygous BRAF V600E mutation. Origin: Cancer Cell Line Encyclopedia (CCLE). SK-MEL-30—skin melanoma cell line, harboring heterozygous NRAS Q61K mutation. Origin: CCLE.
(§2) Cells were cultured in 96-well plates in a total volume of 100 μL at 37° C., 5% CO2 and 95% relative humidity. All cell lines were cultured in RPMI Medium (RPMI 1640 w/o L-glutamine, Bioconcept ref. 1-41F01-I) except A375, DMEM medium (DMEM high glucose (4.5 g/L), Bioconcept, ref. 1-26F01-I), and supplemented with 10% FCS (Bioconcept, ref. 2-01F30-I). Two to three thousand cells were seeded in 96-well plates per well the night before they were treated with compounds (concentration range: from 260 nM to 0.036 nM with ⅓ dilution steps; for 7 the concentration range was increased from 10000 nM to 1.52 nM with ⅓ dilution steps). Cell viability was measured by addition of 10 ul of resazurin per well after 96 hours of treatment. Results were analyzed and plotted using GraphPad Prism 9.0.1.

[2] = test system: A375 skin melanoma cell line (homozygous BRAF V600E); assay: Cell proliferation assay (resazurin cell viability), A375 cell line; type: cell-based
Excerpt: as §1, §2

[3] = test system: 92.1 uveal melanoma cell line (heterozygous GNAQ Q209L); assay: Cell proliferation assay (resazurin cell viability), 92.1 cell line; type: cell-based
Excerpt: as §1, §2

MDCK-LE monolayers = assay: Cell-based transwell assay with MDCK-low efflux monolayers (passive permeability); type: in vitro ADME; conditions: MDCK-LE monolayers
Protocol: Cell-based transwell assays with MDCK-low efflux monolayers: Compounds (A1) and 2-15 were tested in MDCK cell sub-clones with low effluxt ransporter activity (MDCK-LE) in order to determine their passive permeability. The incubations were performed at a contract research organization as described previously.

[4] = Plasma incubation of compound (A1), human plasma, LC-MS/MS quantification; type: in vitro ADME; conditions: formed in incubation of (A1) in human plasma, 37° C.
Protocol: Plasma incubations and sample preparation: Compound (A1) was spiked at 5.00 μg/mL in PBS and pooled mixed gender mouse (CD-1), cynomolgus monkey and human plasma. Samples were incubated on a Thermomixer (Eppendorf) at 37° C. while shaking at 650 rpm. Aliquots of 50 μL (n=3) were drawn from each incubation tube following 0, 0.5, 1, 2, 4, 8 and 24 h of incubation. 50 μL of sample was quenched with 200 μL of acetonitrile, containing both generic internal standards, glybenclamide and warfarin, at 62.5 ng/mL. Samples were briefly vortexed and centrifuged for 20 min at 4000 rpm and 4° C. 200 μL of the supernatant was transferred into a clean 800 μL 96-well sample collection plate.
Quantification by LC-MS/MS: LC-MS/MS analysis was conducted with a Shimadzu Nexera UPLC coupled to AB Sciex QTRAP 6500 using the SRM acquisition mode (3 μL injected). Samples were analyzed using a ACE 3° C.18-PFP (3 μM, 2.1×50 mm column) at a column temperature of 65° C. The starting conditions were 97% H20 containing 0.1% formic acid and 3% CH3CN containing 0.1% formic acid. Quantification of compound (A1) and 5 was performed by MS-MRM (electrospray in positive mode, ion spray voltage: 5000 V, source temperature: 500° C., curtain gas: 25 psig, nebulizer gas: 60 psig, turbo ion spray gas: 40 psig, mass range: low, resolution Q1/Q3: unit, collision gas: medium, dwell time: 12 msec). Separate calibration curves were established with calibration standards of compounds (A1) and 5 at concentrations of 10.0, 5.00, 2.50, 1.00, 0.500, 0.100, 0.050 and 0.010 μg/mL respectively. Peak integration and quantification was conducted with the AB Sciex Analyst software (v.1.7) using the Analyst Classic algorithm. […]

[5] = test system: SK-MEL-30 skin melanoma cell line (heterozygous NRAS Q61K); assay: Cell proliferation assay (resazurin cell viability), SK-MEL-30 cell line; type: cell-based
Excerpt: as §1, §2

[6] = EPSA determination by supercritical fluid chromatography; type: physicochemical; conditions: modified EPSA method, SFC
Protocol: […] by supercritical fluid chromatography: Compounds (A1) and 2-15 were tested by supercritical fluid chromatography (SFC) to determine their ESAPSA values. Samples were analyzed using a Chirex 3014 column ([…], 3×100 mm column, 100 Å pore size; Phenomenex. The starting conditions were 5% methanol containing 20 mM ammonium formate and 95% scCO2. The gradient was increased linearly to 60% methanol containing 20 mM ammonium formate in 4.5 min.

SMILES: C=C(C(=O)N[C@@H](C)C(=O)N(C)[C@@H](C)C(=O)N[C@H](C(=O)N(C)[C@H](C(=O)O)[C@@H](C)OC)[C@H](OC(=O)[C@@H](NC(=O)CC)[C@H](O)C(C)C)C(C)C)N(C)C(=O)[C@@H](Cc1ccccc1)OC(=O)C(=CC(C)C)NC(C)=O [Compound 5] (Ac-[X2][dPhLac][NMeDha]A[NMeA][X1](Leu(3R-OH,Nα-propionyl))[NMeT](Me)-OH)
- GI50 ([1]; MP41 (GNA11 Q209L), 96 hours of treatment, read-out: GI50 by cell line, MP41): > 0.26 µM
- GI50 ([1]; MP41 cell line, average of Rep. 1 and 2, read-out: GI50 MP41 Average): > 0.26 µM
- GI50 ([1]; MP41 cell line, replicate 1, read-out: GI50 MP41 Rep. 1): > 0.26 µM
- GI50 ([1]; MP41 cell line, replicate 2, read-out: GI50 MP41 Rep. 2): > 0.26 µM
- GI50 ([2]; A375 (GNAQ/11 wild type), 96 hours of treatment, read-out: GI50 by cell line, A375): > 0.26 µM
- GI50 ([2]; A375 cell line, average of Rep. 1 and 2, read-out: GI50 A375 Average): > 0.26 µM
- GI50 ([2]; A375 cell line, replicate 1, read-out: GI50 A375 Rep. 1): > 0.26 µM
- GI50 ([2]; A375 cell line, replicate 2, read-out: GI50 A375 Rep. 2): > 0.26 µM
- GI50 ([3]; 92.1 (GNAQ Q209L), 96 hours of treatment, read-out: GI50 by cell line, 92.1): > 0.26 µM
- GI50 ([3]; 92.1 cell line, average of Rep. 1 and 2, read-out: GI50 92.1 Average): > 0.26 µM
- GI50 ([3]; 92.1 cell line, replicate 1, read-out: GI50 92.1 Rep. 1): > 0.26 µM
- GI50 ([3]; 92.1 cell line, replicate 2, read-out: GI50 92.1 Rep. 2): > 0.26 µM
- % Fraction absorbed (MDCK-LE monolayers): 4.2%
- % Recovery (MDCK-LE monolayers): 86%
- Papp A − B (MDCK-LE monolayers): 0.27 ×10⁻⁶ cm/s
- Concentration of 5, Aliquot 1 ([4]; 0 h): BLQ
- Concentration of 5, Aliquot 2 ([4]; 0 h): BLQ
- Concentration of 5, Aliquot 3 ([4]; 0 h): BLQ
- Concentration of 5, Aliquot 1 ([4]; 0.5 h): 61.3 ng/mL
- Concentration of 5, Aliquot 2 ([4]; 0.5 h): 67.3 ng/mL
- Concentration of 5, Aliquot 3 ([4]; 0.5 h): 67.1 ng/mL
- Mean concentration of 5 ([4]; 0.5 h): 65.2 ng/mL
- Concentration of 5, Aliquot 1 ([4]; 1 h): 117 ng/mL
- Concentration of 5, Aliquot 2 ([4]; 1 h): 123 ng/mL
- Concentration of 5, Aliquot 3 ([4]; 1 h): 142 ng/mL
- Mean concentration of 5 ([4]; 1 h): 127 ng/mL
- Concentration of 5, Aliquot 1 ([4]; 2 h): 255 ng/mL
- Concentration of 5, Aliquot 2 ([4]; 2 h): 289 ng/mL
- Concentration of 5, Aliquot 3 ([4]; 2 h): 317 ng/mL
- Mean concentration of 5 ([4]; 2 h): 287 ng/mL
- Concentration of 5, Aliquot 1 ([4]; 4 h): 615 ng/mL
- Concentration of 5, Aliquot 2 ([4]; 4 h): 647 ng/mL
- Concentration of 5, Aliquot 3 ([4]; 4 h): 677 ng/mL
- Mean concentration of 5 ([4]; 4 h): 646 ng/mL
- Concentration of 5, Aliquot 1 ([4]; 8 h): 1370 ng/mL
- Concentration of 5, Aliquot 2 ([4]; 8 h): 1480 ng/mL
- Concentration of 5, Aliquot 3 ([4]; 8 h): 1570 ng/mL
- Mean concentration of 5 ([4]; 8 h): 1470 ng/mL
- Concentration of 5, Aliquot 1 ([4]; 24 h): 3140 ng/mL
- Concentration of 5, Aliquot 2 ([4]; 24 h): 2820 ng/mL
- Concentration of 5, Aliquot 3 ([4]; 24 h): 3140 ng/mL
- Mean concentration of 5 ([4]; 24 h): 3030 ng/mL
- GI50 ([5]; SK-MEL-30 (GNAQ/11 wild type), 96 hours of treatment, read-out: GI50 by cell line, SK-MEL-30): > 0.26 µM
- GI50 ([5]; SK-MEL-30 cell line, average of Rep. 1 and 2, read-out: GI50 SK-MEL-30 Average): > 0.26 µM
- GI50 ([5]; SK-MEL-30 cell line, replicate 1, read-out: GI50 SK-MEL-30 Rep. 1): > 0.26 µM
- GI50 ([5]; SK-MEL-30 cell line, replicate 2, read-out: GI50 SK-MEL-30 Rep. 2): > 0.26 µM
- EPSA [6]: 229 A^2
